Test system: patients with advanced solid tumors
Test: First-in-human phase 1 dose-escalation study: safety, DLTs, adverse events
Type: in vivo
Description: This multicenter first-in-human dose-escalation phase 1 study (clinicaltrials.gov identifier: NCT03272256) was designed to determine the MTD or RP2D and to evaluate the safety and tolerability of IM156. Secondary endpoints included PK characteristics, efficacy assessment (objective response rate [ORR], disease control rate [DCR], duration of response [DoR] and progression-free survival [PFS]). Furthermore, exploratory objectives included identification and profiling of IM156 metabolites, evaluations of exploratory PD markers of IM156, and evaluations of any potential relationship between putative biomarkers and safety/efficacy parameters of IM156. The study was conducted in accordance with Good Clinical Practice, the International Council for Harmonisation, and guidelines governing clinical study conduct and the ethical principles originating from the Declaration of Helsinki. The study was approved by each Institutional Review Board and patients provided written informed consent. Patients were enrolled at three sites in South Korea.
The initial dose and schedule of IM156 was chosen based on animal toxicology studies. […] IM156 was administered in the fasted state, with no food for at least 2 h before and 1 h after dosing.
Three DLT-evaluable patients were enrolled at each dose level. If there were no DLTs or other prohibitive adverse events (AEs), the Safety Committee was allowed to recommend escalation to the next highest dose level. If 1 DLT occurred in the first 3 DLT-evaluable patients, enrollment in that cohort was expanded to an additional 3 DLT-evaluable patients; if ≥ 2 DLTs were reported in a cohort, that dose was considered above the MTD.
Safety was assessed through vital signs, weight, laboratory assessments, physical examinations, electrocardiogram, and reporting of AEs as graded by the National Cancer Institute’s Common Terminology Criteria for Adverse Events v4.03 (NCI-CTCAE).
DLTs were defined as the following AEs if they were attributed as related to IM156: asymptomatic grade 4 neutropenia lasting for ≥ 5 days; febrile neutropenia, regardless of grade; grade 4 thrombocytopenia or grade 3 thrombocytopenia with bleeding; any grade ≥ 3 non-hematologic AE (except grade 3 hypertension and grade 3 nausea, vomiting or diarrhea for which proper measures for prevention and treatment were not implemented, and alopecia); blood lactate levels > 5 mmol; grade ≥ 2 AE prohibiting dosing of IM156 for ≥ 21 continuous days except for alterations in serum calcium or phosphorus levels. The safety analysis includes all patients who received at least one dose of study drug.
The safety population was defined as all patients who received at least one dose of IM156. The PK population was not defined in the protocol but included all patients with sufficient PK data to perform adequate PK modeling. The efficacy population included all patients who underwent at least one tumor imaging assessment while receiving IM156. Safety was assessed using descriptive statistics (e.g., DLTs, AEs, laboratory tests, physical examination, 12-lead ECG). The incidence and number of events were reported for the DLTs observed in Cycle 1 per dose group. […] Adverse events and TRAEs were standardized with the System Organ Class and the Preferred Term using the Medical Dictionary for Regulatory Activities v23.0. In addition, TEAEs, serious adverse events (SAEs), TEAE severity, and TEAEs leading to withdrawal were presented by dose group. Efficacy data were to be presented by Waterfall and Swim Lane plots. Time to event endpoints (e.g., DoR, PFS) were determined using Kaplan–Meier estimations with the median value for each endpoint summarized.

[1] = DL3 400 mg orally every other day (n=3)
[2] = DL4 800 mg orally every other day (n=3)

In the case of NC(=Nc1ccc(OC(F)(F)F)cc1)N=C(N)N1CCCC1 [IM156], the “TRAE Blood Lactic Acid increased, > G3 (patients)” value (DL3 400 mg QOD oral, N = 3) is reported as 0, the “TRAE Blood Lactic Acid increased, All grades (patients)” value (DL3 400 mg QOD oral, N = 3) is reported as 0 and the “TRAE Constipation, > G3 (patients)” value (DL3 400 mg QOD oral, N = 3) is reported as 0. The “TRAE Constipation, All grades (patients)” value (DL3 400 mg QOD oral, N = 3) was 0, the “TRAE Decreased appetite, > G3 (patients)” value (DL3 400 mg QOD oral, N = 3) was 0 and the “TRAE Decreased appetite, All grades (patients)” value (DL3 400 mg QOD oral, N = 3) was 0. For the same compound, the “TRAE Diarrhoea, > G3 (patients)” value (DL3 400 mg QOD oral, N = 3) was 0, the “TRAE Diarrhoea, All grades (patients)” value (DL3 400 mg QOD oral, N = 3) was 0 and the “TRAE Fatigue, > G3 (patients)” value (DL3 400 mg QOD oral, N = 3) was 0. The “TRAE Fatigue, All grades (patients)” value (DL3 400 mg QOD oral, N = 3) was 0, the “TRAE Insomnia, > G3 (patients)” value (DL3 400 mg QOD oral, N = 3) was 0 and the “TRAE Insomnia, All grades (patients)” value (DL3 400 mg QOD oral, N = 3) was 1. The “TRAE Nausea, > G3 (patients)” value (DL3 400 mg QOD oral, N = 3) was 0, the “TRAE Nausea, All grades (patients)” value (DL3 400 mg QOD oral, N = 3) was 3 and the “TRAE Vomiting, > G3 (patients)” value (DL3 400 mg QOD oral, N = 3) was 0. The “TRAE Vomiting, All grades (patients)” value (DL3 400 mg QOD oral, N = 3) was 1, the “TEAE Adrenal insufficiency grade 1” value [1] was 0 and the “TEAE Adrenal insufficiency grade 2” value [1] was 0. For the same compound, the “TEAE Adrenal insufficiency grade 3” value [1] was 0, the “TEAE Adrenal insufficiency grade 4” value [1] was 0 and the “TEAE Anaemia grade 1” value [1] was 0. The “TEAE Anaemia grade 2” value [1] was 0, the “TEAE Anaemia grade 3” value [1] was 0 and the “TEAE Anaemia grade 4” value [1] was 0. The “TEAE Appendicitis perforated grade 1” value [1] was 0, the “TEAE Appendicitis perforated grade 2” value [1] was 0 and the “TEAE Appendicitis perforated grade 3” value [1] was 0. For the same compound, the “TEAE Appendicitis perforated grade 4” value [1] was 0, the “TEAE Back pain grade 1” value [1] was 0 and the “TEAE Back pain grade 2” value [1] was 0. The “TEAE Back pain grade 3” value [1] was 0, the “TEAE Back pain grade 4” value [1] was 0 and the “TEAE Cystitis grade 1” value [1] was 0. The “TEAE Cystitis grade 2” value [1] was 0, the “TEAE Cystitis grade 3” value [1] was 0 and the “TEAE Cystitis grade 4” value [1] was 0. The “TEAE Dry skin grade 1” value [1] was 0, the “TEAE Dry skin grade 2” value [1] was 0 and the “TEAE Dry skin grade 3” value [1] was 0. For the same compound, the “TEAE Dry skin grade 4” value [1] was 0, the “TEAE Flank pain grade 1” value [1] was 0 and the “TEAE Flank pain grade 2” value [1] was 0. For the same compound, the “TEAE Flank pain grade 3” value [1] was 0, the “TEAE Flank pain grade 4” value [1] was 0 and the “TEAE Hypertension grade 1” value [1] was 0. For the same compound, the “TEAE Hypertension grade 2” value [1] was 1, the “TEAE Hypertension grade 3” value [1] was 0 and the “TEAE Hypertension grade 4” value [1] was 0. The “TEAE Hypotension grade 1” value [1] was 0, the “TEAE Hypotension grade 2” value [1] was 0 and the “TEAE Hypotension grade 3” value [1] was 0. For the same compound, the “TEAE Hypotension grade 4” value [1] was 0, the “TEAE Insomnia grade 1” value [1] was 1 and the “TEAE Insomnia grade 2” value [1] was 0. The “TEAE Insomnia grade 3” value [1] was 0, the “TEAE Insomnia grade 4” value [1] was 0 and the “TEAE Pain in extremity grade 1” value [1] was 1. For the same compound, the “TEAE Pain in extremity grade 2” value [1] was 0, the “TEAE Pain in extremity grade 3” value [1] was 0 and the “TEAE Pain in extremity grade 4” value [1] was 0. The “TEAE Pruritus grade 1” value [1] was 0, the “TEAE Pruritus grade 2” value [1] was 0 and the “TEAE Pruritus grade 3” value [1] was 0. For the same compound, the “TEAE Pruritus grade 4” value [1] was 0, the “TEAE Psychiatric disorders grade 1” value [1] was 1 and the “TEAE Psychiatric disorders grade 2” value [1] was 0. The “TEAE Psychiatric disorders grade 3” value [1] was 0, the “TEAE Psychiatric disorders grade 4” value [1] was 0 and the “TEAE Purpura grade 1” value [1] was 0. The “TEAE Purpura grade 2” value [1] was 0, the “TEAE Purpura grade 3” value [1] was 0 and the “TEAE Purpura grade 4” value [1] was 0. The “TEAE Urinary retention grade 1” value [1] was 0, the “TEAE Urinary retention grade 2” value [1] was 0 and the “TEAE Urinary retention grade 3” value [1] was 0. For the same compound, the “TEAE Urinary retention grade 4” value [1] was 0, the “TEAE Urinary tract disorder grade 1” value [1] was 0 and the “TEAE Urinary tract disorder grade 2” value [1] was 0. The “TEAE Urinary tract disorder grade 3” value [1] was 0, the “TEAE Urinary tract disorder grade 4” value [1] was 0 and the “TEAE Abdominal pain upper, grade 2” value (DL4 800 mg QOD (n=3)) was 1. The “TEAE Abdominal pain, grade 1” value (DL4 800 mg QOD (n=3)) was 1, the “TEAE Abdominal pain, grade 3” value (DL4 800 mg QOD (n=3)) was 1 and the “TEAE Asthenia, grade 1” value (DL4 800 mg QOD (n=3)) was 1. The “TEAE Chest pain, grade 1” value (DL4 800 mg QOD (n=3)) was 1, the “TEAE Constipation, grade 1” value (DL4 800 mg QOD (n=3)) was 1 and the “TEAE Constipation, grade 2” value (DL4 800 mg QOD (n=3)) was 1. For the same compound, the “TEAE Cough, grade 1” value (DL4 800 mg QOD (n=3)) was 1, the “TEAE Diarrhoea, grade 1” value (DL4 800 mg QOD (n=3)) was 3 and the “TEAE Fatigue, grade 1” value (DL4 800 mg QOD (n=3)) was 1. The “TEAE Nausea, grade 1” value (DL4 800 mg QOD (n=3)) was 2, the “TEAE Nausea, grade 2” value (DL4 800 mg QOD (n=3)) was 1 and the “TRAE Abdominal Pain, > G3 (patients)” value (DL4 800 mg QOD oral, N = 3) was 0. For the same compound, the “TRAE Abdominal Pain, All grades (patients)” value (DL4 800 mg QOD oral, N = 3) was 1, the “TRAE Blood Lactic Acid increased, > G3 (patients)” value (DL4 800 mg QOD oral, N = 3) was 0 and the “TRAE Blood Lactic Acid increased, All grades (patients)” value (DL4 800 mg QOD oral, N = 3) was 0. The “TRAE Constipation, > G3 (patients)” value (DL4 800 mg QOD oral, N = 3) was 0, the “TRAE Constipation, All grades (patients)” value (DL4 800 mg QOD oral, N = 3) was 0 and the “TRAE Decreased appetite, > G3 (patients)” value (DL4 800 mg QOD oral, N = 3) was 0. The “TRAE Decreased appetite, All grades (patients)” value (DL4 800 mg QOD oral, N = 3) was 0, the “TRAE Diarrhoea, > G3 (patients)” value (DL4 800 mg QOD oral, N = 3) was 0 and the “TRAE Diarrhoea, All grades (patients)” value (DL4 800 mg QOD oral, N = 3) was 3. The “TRAE Fatigue, > G3 (patients)” value (DL4 800 mg QOD oral, N = 3) was 0, the “TRAE Fatigue, All grades (patients)” value (DL4 800 mg QOD oral, N = 3) was 1 and the “TRAE Insomnia, > G3 (patients)” value (DL4 800 mg QOD oral, N = 3) was 0. For the same compound, the “TRAE Insomnia, All grades (patients)” value (DL4 800 mg QOD oral, N = 3) was 0, the “TRAE Nausea, > G3 (patients)” value (DL4 800 mg QOD oral, N = 3) was 0 and the “TRAE Nausea, All grades (patients)” value (DL4 800 mg QOD oral, N = 3) was 3. The “TRAE Vomiting, > G3 (patients)” value (DL4 800 mg QOD oral, N = 3) was 0, the “TRAE Vomiting, All grades (patients)” value (DL4 800 mg QOD oral, N = 3) was 0 and the “TEAE Adrenal insufficiency grade 1” value [2] was 0. For the same compound, the “TEAE Adrenal insufficiency grade 2” value [2] was 0, the “TEAE Adrenal insufficiency grade 3” value [2] was 0 and the “TEAE Adrenal insufficiency grade 4” value [2] was 0. For the same compound, the “TEAE Anaemia grade 1” value [2] was 0, the “TEAE Anaemia grade 2” value [2] was 0 and the “TEAE Anaemia grade 3” value [2] was 0.

Reference: paper PMC9395488, “First-in-human study of IM156, a novel potent biguanide oxidative phosphorylation (OXPHOS) inhibitor, in patients with advanced solid tumors” (Investigational New Drugs, 2022)
